From PMC6874683, “Pyrrothiogatain acts as an inhibitor of GATA family proteins and inhibits Th2 cell differentiation in vitro” (Scientific Reports, 2019)

Assays:
RelA = biological target: T1, RelA (Homo sapiens, UniProt Q04206); test: AlphaScreen binding assay of RelA and its target DNA (control); conditions: second screen, 0 to 10 µM
T1 construct: FLAG; made in house; host or cells: wheat cell-free protein synthesis system (inferred from the general methods)
Source text: Figure 2 Identification of a GATA3 inhibitor using the wheat cell-free drug screening system. (A) A flow chart of the high-throughput screening to identify the 3-(2,5-dimethyl-1H-pyrrol-1-yl)thiophene-2-carboxylic acid that inhibits the DNA-binding activity of GATA3. The 3-(2,5-dimethyl-1H-pyrrol-1-yl)thiophene-2-carboxylic acid was named pyrrothiogatain (pyrrole and thiofuran containing GATA3 inhibitor). (B) The results of the first screen using 9,600 compounds. In the assay, each chemical compound was used at a final concentration of 10 µM. (C) The results of the second screening that show the inhibition rate of pyrrothiogatain. The inhibition assay of GATA3 DNA-binding activity was performed in the presence of various concentrations of pyrrothiogatain (0 to 10 µM). Biotinylated FLAG-peptide was used as a control to measure the interference of compounds in the AlphaScreen assay. In addition, a binding assay of RelA and its target DNA was used as control for GATA3. (D) Electrophoretic mobility shift assay (EMSA) of GATA3 with its consensus motif containing oligonucleotide in the presence of various concentrations of pyrrothiogatain (0 to 100 µM). GATA3 consensus oligonucleotide labelled with ^32P was detected by autoradiography. […] In (B,D,E), all data are expressed as individual points of three independent experiments with error bars indicating standard deviation. […]

[1] = tested on: GATA3 binding to Th2 cytokine gene locus; test: Chromatin immunoprecipitation with anti-GATA3 antibody in Th2 cells; format: cell-based, mouse; conditions: naive CD4+ T cells, Th2 conditions, 80 µM, 2 days
Description: GATA3 has been reported to bind to Th2 cytokine gene locus, such as IL-4 VA enhancer, IL-4 intron enhancer, conserved Gata3-response element (CGRE)[26] and IL-5 promoter[27] regions in Th2 cells. We investigated whether pyrrothiogatain inhibited GATA3 binding to Th2 cytokine gene locus. Naive CD4^+ T cells were cultured under Th2 conditions in the presence or absence of 80 µM pyrrothiogatain for 2 days, and then the cells were subjected to chromatin immunoprecipitation with an anti-GATA3 antibody.
The Magna ChIP Chromatin Immunoprecipitation Kit was used for the ChIP assay according to the manufacturer’s protocol (Merck-Millipore). Anti-GATA3 antibody (Cat#AF2605, R&D systems) was used for chromatin immunoprecipitation. The specific primers for the Th2 cytokine gene locus and the Roche Universal probes were used as follows: the VA site in the IL-4 enhancer: 5′-[…]-3′ (forward), 5′-[…]-3′ (reverse), probe #4; IL-4 IE: 5′-[…]-3′ (forward), 5′-AAATCCGAAACTGA GGAGTGC-3′ (reverse), probe #75; CGRE: 5′-CTCTCCTGGTGGCGTGTT-3′ (forward), 5′-CTTTGCGCACCCTTGAAC-3′ (reverse), probe #53; and IL-5p: 5′-[…]-3′ (forward), 5′-[…]-3′ (reverse), probe #43;

T1 sequence (Q04206 whole entry, species assumed): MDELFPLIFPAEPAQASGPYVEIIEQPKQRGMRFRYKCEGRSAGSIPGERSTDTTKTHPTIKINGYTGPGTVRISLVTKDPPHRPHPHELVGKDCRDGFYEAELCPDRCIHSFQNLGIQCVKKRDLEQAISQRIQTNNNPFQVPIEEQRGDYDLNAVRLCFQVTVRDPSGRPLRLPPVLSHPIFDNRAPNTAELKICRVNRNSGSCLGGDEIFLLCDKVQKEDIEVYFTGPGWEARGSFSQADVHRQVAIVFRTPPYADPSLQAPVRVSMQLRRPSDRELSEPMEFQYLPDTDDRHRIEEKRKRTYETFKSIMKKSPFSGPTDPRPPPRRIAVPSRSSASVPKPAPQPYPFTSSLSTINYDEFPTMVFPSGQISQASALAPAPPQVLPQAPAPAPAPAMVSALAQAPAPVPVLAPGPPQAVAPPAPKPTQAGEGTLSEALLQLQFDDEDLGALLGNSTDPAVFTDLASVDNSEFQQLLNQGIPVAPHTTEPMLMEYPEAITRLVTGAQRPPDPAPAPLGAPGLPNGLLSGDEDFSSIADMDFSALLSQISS

## Cc1ccc(C)n1-c1ccsc1C(=O)O [Pyrrothiogatain, 3-(2,5-dimethyl-1H-pyrrol-1-yl)thiophene-2-carboxylic acid]
RelA
  Interference with the RelA-DNA interaction: without interfering
[1]
  GATA3 binding to the IL-4 VA enhancer, IL-4 intron enhancer, CGRE and IL-5 promoter regions: repressed
